US20260200920A1, “SUBSTITUTED AMINOPYRIDINE COMPOUNDS FOR USE AS AKT1 INHIBITORS” (Atavistik Bio, Inc., priority 2023, published 2026)

Columns and labels:
[1] = target: T1, human recombinant kinase full-length AKT1 E17K (Homo sapiens, UniProt P31749, E17K); assay: AKT1 E17K kinase assay (TR-FRET, Lance); assay type: biochemical; conditions: 0.6 nM AKT1 E17K, 50 nM Ulight-CREBtide, either 50 μM ATP or 2 mM ATP, 60 min at RT
T1 construct: Purified human recombinant kinase full-length AKT1 E17K was expressed in insect cells; made in house; host or cells: insect cells
Procedure: AKT1 E17K kinase assay: Inhibitory effects of compounds on AKT1 E17K were undertaken in a 10-pt dose response kinase activity assay measuring phospho-peptide product formation based on TR-FRET signal as described in the following paragraph.
(§1) Purified human recombinant kinase full-length AKT1 E17K was expressed in insect cells and activated in vitro by PDPK1. Ulight™-CREBtide (PerkinElmer, catalog number TRF0107) was used as the peptide substrate. The reaction buffer consisted of 50 mM HEPES pH 7.5, 10 mM MgCl2, 0.01% Triton X-100, 0.01% BSA, 2 mM DTT, 0.6 nM AKT1 E17K, 50 nM Ulight™-CREBtide and either 50 μM ATP or 2 mM ATP. The compound solution was prepared as 10 mM DMSO stock. For the assay, a 1.3 serial dilution 10-pt dose response of test compounds, in duplicate, for each concentration were dispensed into a 384-well plate (Corning, catalog number 4513). Final DMSO concentration in the assay was 1%. The enzyme mixture (5 μL, 1.2 nM) were added and the mixture was incubated for 15 min at RT prior to the start of the kinase reaction by the addition of 5 μL substrate mixture (100 nM Ulight™-CREBtide). The reaction was stopped after 60 min of incubation at RT by the addition of 10 μL of Detection Mix (PerkinElmer, #CR97-100) consisting of Europium-anti-phospho-CREB (Ser133) (Perkin Elmer, catalog number TRF0200). Incubation with the detection mix for a further 60 min allowed binding of antibody to the phospho-Ulight™ CREBtide. The fluorescence emissions at 620 nm and 665 nm after excitation at 350 nm was measured using Envision reader. The ratio of the emissions at 665 nm and at 620 nm provided the measure for the amount of phosphorylated CREBtide product of AKT1 E17K kinase activity. To determine the IC50 values, the data was normalized (enzyme reaction without inhibitor=0% inhibition, all other assay components but no enzyme=100% inhibition) and IC50 values were calculated by a 4-parameter fit using an in-house developed protocol.
Table 9 assigns each compound a code for potency in the AKT1 E 17K kinase assay: A, B, or C. According to the code, A represents an IC50 value <500 nM; B represents an IC50 value from ≥500 nM to <2000 nM; and C represents an IC50 value ≥2000 nM.

[2] = target: T2, human recombinant kinase full-length wildtype AKT1 (Homo sapiens, UniProt P31749); assay: AKT1 kinase assay (wildtype, TR-FRET, Lance); assay type: biochemical; conditions: 0.6 nM wildtype AKT1, 50 nM Ulight-CREBtide, either 50 μM ATP or 2 mM ATP, 60 min at RT
T2 construct: Purified human recombinant kinase full-length wildtype AKT1 was expressed in insect cells; made in house; host or cells: insect cells
Procedure: AKT1 kinase assay: Inhibitory effects of compounds on wildtype AKT1 were undertaken in a 10-pt dose response kinase activity assay measuring phospho-peptide product formation based on TR-FRET signal as described in the following paragraph.
as §1, with “full-length wildtype” for “full-length”, “AKT1” for “AKT1 E17K”, “AKT1,50” for “AKT1 E17K, 50”, “1:3” for “1.3”
The symbol +++ represents an IC50 value <20 μM; the symbol ++ represents an IC50 value from ≥20 μM to 80 μM.

T1 sequence (P31749 whole entry E17K): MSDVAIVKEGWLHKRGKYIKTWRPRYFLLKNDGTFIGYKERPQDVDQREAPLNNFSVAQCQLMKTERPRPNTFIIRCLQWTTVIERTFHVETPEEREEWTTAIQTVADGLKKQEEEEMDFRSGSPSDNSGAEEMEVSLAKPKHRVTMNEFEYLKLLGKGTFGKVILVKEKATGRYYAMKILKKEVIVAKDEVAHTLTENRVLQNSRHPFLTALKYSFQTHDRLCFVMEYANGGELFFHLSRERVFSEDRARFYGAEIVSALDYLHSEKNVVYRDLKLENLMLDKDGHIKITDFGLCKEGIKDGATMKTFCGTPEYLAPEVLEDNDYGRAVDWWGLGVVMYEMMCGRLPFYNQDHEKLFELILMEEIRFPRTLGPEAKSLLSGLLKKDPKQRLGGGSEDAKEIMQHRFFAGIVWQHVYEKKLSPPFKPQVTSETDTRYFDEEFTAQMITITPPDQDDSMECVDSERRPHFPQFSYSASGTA
T2 sequence (P31749 whole entry): as the sequence (P31749 whole entry E17K) above, with K17E counted along it

Row | SMILES | IC50 [1] [µM] | IC50 [2] [µM]
1 | CC(C)(C(=O)O)C1CCN(Cc2ccc(-n3c(-c4cccnc4N)nc4ccc(-c5ccccc5)nc43)cc2)C1 (stereo not shown) [Compound I-105, 2-[1-[[4-[2-(2-amino-3-pyridyl)-5-phenyl-imidazo[4,5-b]pyridin-3-yl]phenyl]methyl]pyrrolidin-3-yl]-2-methyl-propanoic acid] | 0.5 to 2 | < 20
2 | Nc1ncccc1-c1nc2ccc(-c3ccccc3)nc2n1-c1ccc(N[C@H]2CC[C@H](C(=O)O)CC2)nc1 (single isomer, unassigned) [Compound I-14, (1r,4r)-4-((5-(2-(2-aminopyridin-3-yl)-5-phenyl-3H-imidazo[4,5-b]pyridin-3-yl)pyridin-2-yl)amino)cyclohexane-1-carboxylic acid] | ≥ 2 | < 20
3 | Nc1ncccc1-c1nc2ccc(-c3ccc(F)cc3)nc2n1-c1ccc(NC(=O)[C@H]2CC[C@H](C(=O)O)CC2)nc1 [Compound I-40, (1r,4r)-4-((5-(2-(2-aminopyridin-3-yl)-5-(4-fluorophenyl)-3H-imidazo[4,5-b]pyridin-3-yl)pyridin-2-yl)carbamoyl)cyclohexane-1-carboxylic acid] | < 0.5 | < 20
4 | COC(=O)[C@H]1CC[C@H](C(=O)Nc2ccc(-n3c(-c4cccnc4N)nc4ccc(-c5ccccc5)nc43)cn2)CC1 [Compound I-113, methyl (1r,4r)-4-((5-(2-(2-aminopyridin-3-yl)-5-phenyl-3H-imidazo[4,5-b]pyridin-3-yl)pyridin-2-yl)carbamoyl)cyclohexane-1-carboxylate] | 0.5 to 2 | < 20
5 | Cc1cc(C2(C)CN(CC3CC4(C3)CC(C(=O)O)C4)C2)ccc1-n1c(-c2cccnc2N)nc2ccc(-c3ccccc3)nc21 (stereo not shown) [Compound I-157] | 0.5 to 2 | < 20
6 | CC1(c2ccc(-n3c(-c4cccnc4N)nc4ccc(-c5ccccc5)nc43)cc2)CN(CC2CC3(C2)CC(C(=O)O)C3)C1 (stereo not shown) [Compound I-155] | < 0.5 | < 20
7 | Nc1ncccc1-c1nc2ccc(-c3ccccc3)nc2n1-c1ccc(NC(=O)[C@H]2CC[C@H](C(N)=O)CC2)nc1 [Compound I-115, (1r,4r)-N-(5-(2-(2-aminopyridin-3-yl)-5-phenyl-3H-imidazo[4,5-b]pyridin-3-yl)pyridin-2-yl)cyclohexane-1,4-dicarboxamide] | < 0.5 | < 20
8 | Nc1ncccc1-c1nc2ccc(-c3ccccc3)nc2n1-c1ccc(C2CN(C[C@H]3CC[C@H](C(=O)O)CC3)C2)c(F)c1 [Compound I-62, (1r,4r)-4-((3-(4-(2-(2-aminopyridin-3-yl)-5-phenyl-3H-imidazo[4,5-b]pyridin-3-yl)-2-fluorophenyl)azetidin-1-yl)methyl)cyclohexane-1-carboxylic acid] | 0.5 to 2 | < 20
9 | Cc1cc(C2CN(C[C@H]3CC[C@H](C(=O)O)CC3)C2)ccc1-n1c(-c2cccnc2N)nc2ccc(-c3ccccc3)cc21 [Compound I-223] | ≥ 2 | < 20
10 | CC(C)(C(=O)O)C1CCN(Cc2ccc(-n3c(-c4cccnc4N)nc4ccc(-c5ccccc5)nc43)c(F)c2)C1 (stereo not shown) [Compound I-185] | 0.5 to 2 | < 20
11 | Nc1ncccc1-c1nc2ccc(-c3ccccc3)nc2n1-c1ccc(NC(=O)C2CCCC(C(=O)O)C2)cc1 (stereo not shown) [Compound I-4, 3-[[4-[2-(2-amino-3-pyridyl)-5-phenyl-imidazo[4,5-b]pyridin-3-yl]phenyl]carbamoyl]cyclohexanecarboxylic acid] | < 0.5 | < 20
12 | Nc1ncccc1-c1nc2cc(-c3cccnc3)cnc2n1-c1ccc(C2CN(C[C@H]3CC[C@H](C(=O)O)CC3)C2)cc1 [Compound I-73, (1r,4r)-4-((3-(4-(2-(2-aminopyridin-3-yl)-6-(pyridin-3-yl)-3H-imidazo[4,5-b]pyridin-3-yl)phenyl)azetidin-1-yl)methyl)cyclohexane-1-carboxylic acid] | ≥ 2 | < 20
13 | CC(C)(C)c1ccc2nc(-c3cccnc3N)n(-c3ccc(NC(=O)[C@H]4CC[C@H](C(=O)O)CC4)cc3)c2c1 [Compound I-35, (1r,4r)-4-((4-(2-(2-aminopyridin-3-yl)-6-(tert-butyl)-1H-benzo[d]imidazol-1-yl)phenyl)carbamoyl)cyclohexane-1-carboxylic acid] | ≥ 2 | < 20
14 | Nc1ncccc1-c1nc2ccc(-c3ccccc3)nc2n1-c1ccc(CN(CC(F)(F)F)[C@H]2CC[C@@H](C(=O)O)CC2)cc1 (single isomer, unassigned) [Compound I-189, (1s,4s)-4-((4-(2-(2-aminopyridin-3-yl)-5-phenyl-3H-imidazo[4,5-b]pyridin-3-yl)benzyl)(2,2,2-trifluoroethyl)amino)cyclohexane-1-carboxylic acid] | ≥ 2 | < 20
15 | Cc1nc(N[C@H]2CC[C@H](C(=O)O)CC2)ccc1-n1c(-c2cccnc2N)nc2ccc(-c3ccccc3)nc21 [Compound I-121, (1r,4r)-4-((5-(2-(2-aminopyridin-3-yl)-5-phenyl-3H-imidazo[4,5-b]pyridin-3-yl)-6-methylpyridin-2-yl)amino)cyclohexane-1-carboxylic acid] | < 0.5 | < 20
16 | Nc1ncccc1-c1nc2ccc(-c3ccccc3F)nc2n1-c1ccc([C@H]2CCN(C[C@H]3CC[C@@H](C(=O)O)CC3)C2)cc1 (single isomer, unassigned) [Compound I-228] | 0.5 to 2 | < 20
17 | Nc1ncccc1-c1nc2ccc(-c3ccccc3)nc2n1-c1ccc(NC[C@H]2CC[C@@H](C(=O)O)CC2)nc1 [Compound I-114, (1s,4s)-4-(((5-(2-(2-aminopyridin-3-yl)-5-phenyl-3H-imidazo[4,5-b]pyridin-3-yl)pyridin-2-yl)amino)methyl)cyclohexane-1-carboxylic acid] | 0.5 to 2 | < 20
18 | CC1(C)C[C@H](CN2CCC(c3ccc(-n4c(-c5cccnc5N)nc5ccc(-c6ccccc6)nc54)cc3)CC2)CC(C)(C)[C@H]1C(=O)O [Compound I-196] | ≥ 2 | < 20
19 | CC1(C(=O)O)CCN(Cc2ccc(-n3c(-c4cccnc4N)nc4ccc(-c5ccccc5)nc43)cc2)CC1 [Compound I-86, 1-[[4-[2-(2-amino-3-pyridyl)-5-phenyl-imidazo[4,5-b]pyridin-3-yl]phenyl]methyl]-4-methyl-piperidine-4-carboxylic acid] | 0.5 to 2 | < 20
20 | Cc1nc(N[C@H]2CC[C@@H](C(=O)O)CC2)ccc1-n1c(-c2cccnc2N)nc2ccc(-c3ccccc3)nc21 [Compound I-134, (1s,4s)-4-((5-(2-(2-aminopyridin-3-yl)-5-phenyl-3H-imidazo[4,5-b]pyridin-3-yl)-6-methylpyridin-2-yl)amino)cyclohexane-1-carboxylic acid] | 0.5 to 2 | < 20
